Experimental data taken from US7803930B2, “Antisense modulation of apolipoprotein B-expression” (Isis Pharmaceuticals, Inc., priority 2002, dated 2010).
In the oligonucleotide strings, read from the 5' end, every base follows the letter of its sugar. An asterisk marks phosphorothioate; unmarked linkages are phosphodiester. Other units and linkages are bracketed, terminal groups are in braces. A string of capitals states the bases alone. e = 2'-O-(2-methoxyethyl) (MOE); [5mC] = 5-methylcytosine; d = 2'-deoxy (DNA)

These substances were tested on human apolipoprotein B mRNA (assay: Inhibition of human apolipoprotein B mRNA levels in HepG2 cells, quantitative real-time PCR). Conditions: HepG2 cells treated with 150 nM of compound; averages from two experiments; quantitative real-time PCR.
Type: cell-based
Procedure, shortened: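 Apolipoprotein B transcript was quantified by one-step TaqMan RT-PCR, normalized to GAPDH or RiboGreen RNA, and expressed as percent inhibition against an untreated-sample standard curve. HepG2 cells were harvested 16-24 h after oligonucleotide exposure, which was delivered with 3.75 μg/mL Lipofectin over 4-7 h at 80% confluency.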

Substance	% INHIB (inhibition of human apolipoprotein B mRNA levels) [%]
301217 (antisense eA*eG*eA*e[5mC]*eT*d[5mC]*d[5mC]*dA*dT*dT*dT*dA*dT*dT*dT*eG*eT*eT*e[5mC]*e[5mC]) [compound 301217]	81

Same assay, conditions: HepG2 cells; human apolipoprotein B mRNA; oligonucleotides targeting genomic sequence SEQ ID NO 334; averages from two experiments

Substance	% INHIB [%]
301171 (antisense eT*eA*eT*eT*eT*dA*dA*dT*dT*dT*dA*d[5mC]*dT*dG*dA*eG*eA*eA*eA*e[5mC]) [compound 301171]	7
301172 (antisense eT*eA*eA*eT*eG*dT*dG*dT*dT*dG*d[5mC]*dT*dG*dG*dT*eG*eA*eA*eG*eA) [compound 301172]	35
301173 (antisense e[5mC]*eA*eT*e[5mC]*eT*d[5mC]*dT*dA*dA*d[5mC]*d[5mC]*dT*dG*dG*dT*eG*eT*e[5mC]*e[5mC]*e[5mC]) [compound 301173]	21
301174 (antisense eG*eT*eG*e[5mC]*e[5mC]*dA*dT*dG*d[5mC]*dT*dA*dG*dG*dT*dG*eG*e[5mC]*e[5mC]*eA*eT) [compound 301174]	37
301175 (antisense eA*eG*e[5mC]*eA*eA*dA*dT*dT*dG*dG*dG*dA*dT*d[5mC]*dT*eG*eT*eG*e[5mC]*eT) [compound 301175]	29
301176 (antisense eT*e[5mC]*eT*eG*eG*dA*dG*dG*d[5mC]*dT*d[5mC]*dA*dG*dA*dA*eA*e[5mC]*eA*eT*eG) [compound 301176]	57
301177 (antisense eT*eG*eA*eA*eG*dA*d[5mC]*dA*dG*dG*dG*dA*dG*d[5mC]*d[5mC]*eA*e[5mC]*e[5mC]*eT*eA) [compound 301177]	40
301178 (antisense eA*eG*eG*eA*eT*dT*d[5mC]*d[5mC]*d[5mC]*dA*dA*dG*dA*d[5mC]*dT*eT*eT*eG*eG*eA) [compound 301178]	38
301179 (antisense e[5mC]*eA*eG*e[5mC]*eT*d[5mC]*dT*dA*dA*dT*d[5mC]*dT*dA*dA*dA*eG*eA*e[5mC]*eA*eT) [compound 301179]	22
301180 (antisense eG*eA*eA*eT*eA*d[5mC]*dT*d[5mC]*dA*d[5mC]*d[5mC]*dT*dT*d[5mC]*dT*eG*e[5mC]*eT*eT*eG) [compound 301180]	6
301181 (antisense eA*eT*e[5mC]*eT*e[5mC]*dT*d[5mC]*dT*dG*dT*d[5mC]*d[5mC]*dT*d[5mC]*dA*eT*e[5mC]*eT*eT*e[5mC]) [compound 301181]	28
301182 (antisense e[5mC]*e[5mC]*eA*eA*e[5mC]*dT*d[5mC]*d[5mC]*d[5mC]*d[5mC]*d[5mC]*dT*dT*dT*d[5mC]*eT*eT*eT*eG*eT) [compound 301182]	37
301183 (antisense eT*e[5mC]*eT*eG*eG*dG*d[5mC]*d[5mC]*dA*dG*dG*dA*dA*dG*dA*e[5mC]*eA*e[5mC]*eG*eA) [compound 301183]	68
301184 (antisense eT*eA*eT*eT*eG*dT*dG*dT*dG*d[5mC]*dT*dG*dG*dG*d[5mC]*eA*e[5mC]*eT*eG*e[5mC]) [compound 301184]	52
301185 (antisense eT*eG*e[5mC]*eT*eT*d[5mC]*dG*d[5mC]*dA*d[5mC]*d[5mC]*dT*dG*dG*dA*e[5mC]*eG*eA*eG*eT) [compound 301185]	51
301186 (antisense e[5mC]*e[5mC]*eT*eT*e[5mC]*dT*dT*dT*dA*d[5mC]*d[5mC]*dT*dT*dA*dG*eG*eT*eG*eG*e[5mC]) [compound 301186]	37
301187 (antisense eG*e[5mC]*eT*e[5mC]*eT*d[5mC]*dT*d[5mC]*dT*dG*d[5mC]*d[5mC]*dA*d[5mC]*dT*e[5mC]*eT*eG*eA*eT) [compound 301187]	47
301188 (antisense eA*eA*e[5mC]*eT*eT*d[5mC]*dT*dA*dA*dA*dG*d[5mC]*d[5mC]*dA*dA*e[5mC]*eA*eT*eT*e[5mC]) [compound 301188]	27
301189 (antisense eT*eG*eT*eG*eT*d[5mC]*dA*d[5mC]*dA*dA*d[5mC]*dT*dA*dT*dG*eG*eT*eA*eA*eA) [compound 301189]	63
301190 (antisense eA*eG*eA*e[5mC]*eA*d[5mC]*dA*dT*dA*d[5mC]*d[5mC]*dA*dT*dA*dA*eT*eG*e[5mC]*e[5mC]*eA) [compound 301190]	22
301191 (antisense eT*eT*e[5mC]*eT*e[5mC]*dT*dT*d[5mC]*dA*dT*d[5mC]*dT*dG*dA*dA*eA*eA*eT*eA*e[5mC]) [compound 301191]	21
301192 (antisense eT*eG*eA*eG*eG*dA*dT*dG*dT*dA*dA*dT*dT*dA*dG*e[5mC]*eA*e[5mC]*eT*eT) [compound 301192]	27
301193 (antisense eA*eG*e[5mC]*eT*e[5mC]*dA*dT*dT*dG*d[5mC]*d[5mC]*dT*dA*d[5mC]*dA*eA*eA*eA*eT*eG) [compound 301193]	31

Substance	% INHIB [%]
301194 (antisense eG*eT*eT*e[5mC]*eT*d[5mC]*dA*dT*dG*dT*dT*dT*dA*d[5mC]*dT*eA*eA*eT*eG*e[5mC]) [compound 301194]	40
301195 (antisense eG*eA*eA*eT*eT*dG*dA*dG*dA*d[5mC]*dA*dA*d[5mC]*dT*dT*eG*eA*eT*eT*eT) [compound 301195]	26
301196 (antisense e[5mC]*e[5mC]*eG*eG*e[5mC]*d[5mC]*dA*dT*d[5mC]*dG*d[5mC]*dT*dG*dA*dA*eA*eT*eG*eA*eA) [compound 301196]	54
301197 (antisense e[5mC]*eA*eT*eA*eG*d[5mC]*dT*d[5mC]*dA*d[5mC]*d[5mC]*dT*dT*dG*d[5mC]*eA*e[5mC]*eA*eT*eT) [compound 301197]	28
301198 (antisense e[5mC]*eG*eG*eT*eG*d[5mC]*dA*d[5mC]*d[5mC]*d[5mC]*dT*dT*dT*dA*d[5mC]*e[5mC]*eT*eG*eA*eG) [compound 301198]	28
301199 (antisense eT*e[5mC]*eT*e[5mC]*e[5mC]*dA*dG*dA*dT*d[5mC]*d[5mC]*dT*dA*dA*d[5mC]*eA*eT*eA*eA*eA) [compound 301199]	19
301200 (antisense eT*eT*eG*eA*eA*dT*dG*dA*d[5mC]*dA*d[5mC]*dT*dA*dG*dA*eT*eT*eT*eT*e[5mC]) [compound 301200]	37
301201 (antisense eA*eA*eA*eA*eT*d[5mC]*d[5mC]*dA*dT*dT*dT*dT*d[5mC]*dT*dT*eT*eA*eA*eA*eG) [compound 301201]	12
301202 (antisense e[5mC]*eA*eG*e[5mC]*eT*d[5mC]*dA*d[5mC]*dA*d[5mC]*dT*dT*dA*dT*dT*eT*eT*eA*eA*eA) [compound 301202]	7
301203 (antisense eG*eT*eT*e[5mC]*e[5mC]*d[5mC]*dA*dA*dA*dA*d[5mC]*dT*dG*dT*dA*eT*eA*eG*eG*eA) [compound 301203]	36
301204 (antisense eA*eG*e[5mC]*eT*e[5mC]*d[5mC]*dA*dT*dA*d[5mC]*dT*dG*dA*dA*dG*eT*e[5mC]*e[5mC]*eT*eT) [compound 301204]	37
301205 (antisense e[5mC]*eA*eA*eT*eT*d[5mC]*dA*dA*dT*dA*dA*dA*dA*dG*d[5mC]*eT*e[5mC]*e[5mC]*eA*eT) [compound 301205]	31
301206 (antisense eG*eT*eT*eT*eT*d[5mC]*dA*dA*dA*dA*dG*dG*dT*dA*dT*eA*eA*eG*eG*eT) [compound 301206]	28
301207 (antisense eT*eT*e[5mC]*e[5mC]*e[5mC]*dA*dT*dT*d[5mC]*d[5mC]*d[5mC]*dT*dG*dA*dA*eA*eG*e[5mC]*eA*eG) [compound 301207]	13
301208 (antisense eT*eG*eG*eT*eA*dT*dT*dT*dA*d[5mC]*d[5mC]*dT*dG*dA*dG*eG*eG*e[5mC]*eT*eG) [compound 301208]	21
301209 (antisense eA*eT*eA*eA*eA*dT*dA*dA*dT*dA*dG*dT*dG*d[5mC]*dT*eG*eA*eT*eG*eG) [compound 301209]	39
301210 (antisense e[5mC]*eT*eA*eT*eG*dG*d[5mC]*dT*dG*dA*dG*d[5mC]*dT*dT*dG*e[5mC]*e[5mC]*eT*eA*eT) [compound 301210]	33
301211 (antisense e[5mC]*eT*e[5mC]*eT*e[5mC]*dT*dG*dA*dA*dA*dA*dA*dT*dA*dT*eA*e[5mC]*e[5mC]*e[5mC]*eT) [compound 301211]	17
301212 (antisense eT*eT*eG*eA*eT*dG*dT*dA*dT*d[5mC]*dT*d[5mC]*dA*dT*d[5mC]*eT*eA*eG*e[5mC]*eA) [compound 301212]	41
301213 (antisense eT*eA*eG*eA*eA*d[5mC]*d[5mC]*dA*dT*dG*dT*dT*dT*dG*dG*eT*e[5mC]*eT*eT*e[5mC]) [compound 301213]	35
301214 (antisense eT*eT*eT*e[5mC]*eT*d[5mC]*dT*dT*dT*dA*dT*d[5mC]*dA*d[5mC]*dA*eT*eG*e[5mC]*e[5mC]*e[5mC]) [compound 301214]	29
301215 (antisense eT*eA*eT*eA*eG*dT*dA*d[5mC]*dA*d[5mC]*dT*dA*dA*dA*dA*e[5mC]*eT*eT*e[5mC]*eA) [compound 301215]	1
301216 (antisense e[5mC]*eT*eG*eG*eA*dG*dA*dG*dG*dA*d[5mC]*dT*dA*dA*dA*e[5mC]*eA*eG*eA*eG) [compound 301216]	49

Same assay, conditions: Table 15; HepG2 cells, 150 nM; averages from two experiments

Substance	% INHIB [%]
301218 (antisense eA*e[5mC]*eA*eT*eT*dT*dT*dA*dT*d[5mC]*dA*dA*dT*dG*d[5mC]*e[5mC]*e[5mC]*eT*e[5mC]*eG) [compound 301218]	23
301219 (antisense eG*e[5mC]*e[5mC]*eA*eG*dA*dA*d[5mC]*dA*dT*dT*dT*dT*dA*dT*e[5mC]*eA*eA*eT*eG) [compound 301219]	35
